Experimental data from patent US4297486A, “Aminoglycoside antibiotic G-367-1 and method for the production thereof” (Toyo Jozo Kabushiki Kaisha, priority 1979, dated 1981).

Legend:
[1] = tested on: Gram negative bacteria; assay: antibacterial effect against Gram negative bacteria; type: cell-based
From the text: (§1) The antimicrobial spectrum (minimum inhibitory concentration, MIC) of G-367-1 by agar dilution method is as follows: […]

[2] = Solubility; type: physicochemical
[3] = tested on: Pseudomonas aeruginosa ML4561 Rms166; assay: antimicrobial spectrum, MIC by agar dilution method; type: cell-based; conditions: ML4561RMS166, read-out: minimum inhibitory concentration, MIC
From the text: as §1

[4] = tested on: Staphylococcus epidermidis sp-al-1; assay: as above; type: cell-based; conditions: SPAL1, read-out: minimum inhibitory concentration, MIC
From the text: as §1

[5] = tested on: Proteus rettgeri ACR; assay: as above; type: cell-based; conditions: Providencia rettgeri, read-out: minimum inhibitory concentration, MIC
From the text: as §1

[6] = tested on: Pseudomonas maltophilia 1850; assay: as above; type: cell-based; conditions: Stenotrophomonas maltophilia, read-out: minimum inhibitory concentration, MIC
From the text: as §1

[7] = tested on: Escheria coli W3630; assay: as above; type: cell-based; conditions: read-out: minimum inhibitory concentration, MIC
From the text: as §1

[8] = tested on: Proteus morganii 0239; assay: as above; type: cell-based; conditions: Morganella morganii, read-out: minimum inhibitory concentration, MIC
From the text: as §1

[9] = tested on: Enterobacter aerogenes 0655; assay: as above; type: cell-based; conditions: Klebsiella aerogenes, read-out: minimum inhibitory concentration, MIC
From the text: as §1

[10] = tested on: Klebsiella pneunonia ATCC 10031; assay: as above; type: cell-based; conditions: ATCC10031, read-out: minimum inhibitory concentration, MIC
From the text: as §1

[11] = tested on: Pseudomonas putida 1842; assay: as above; type: cell-based; conditions: read-out: minimum inhibitory concentration, MIC
From the text: as §1

[12] = tested on: Pseudomonas aeruginosa 2512; assay: as above; type: cell-based; conditions: read-out: minimum inhibitory concentration, MIC
From the text: as §1

[13] = tested on: Streptococcus pyogenes N.Y.5; assay: as above; type: cell-based; conditions: read-out: minimum inhibitory concentration, MIC
From the text: as §1

[14] = tested on: Pseudomonas aeruginosa ML4561 RP4; assay: as above; type: cell-based; conditions: ML4561RP4, read-out: minimum inhibitory concentration, MIC
From the text: as §1

[15] = tested on: Shigella sonnei E33; assay: as above; type: cell-based; conditions: read-out: minimum inhibitory concentration, MIC
From the text: as §1

[16] = tested on: Enterobacter cloacae GN366; assay: as above; type: cell-based; conditions: read-out: minimum inhibitory concentration, MIC
From the text: as §1

[17] = tested on: Citrobacter freundii GN346; assay: as above; type: cell-based; conditions: read-out: minimum inhibitory concentration, MIC
From the text: as §1

[18] = tested on: Escherichia coli NIHJ-JC2; assay: as above; type: cell-based; conditions: NIHJJC2, read-out: minimum inhibitory concentration, MIC
From the text: as §1

[19] = tested on: Salmonella enteritidis Gartner; assay: as above; type: cell-based; conditions: Salmonella enterica, read-out: minimum inhibitory concentration, MIC
From the text: as §1

[20] = tested on: Pseudomonas aeruginosa IAM1095; assay: as above; type: cell-based; conditions: read-out: minimum inhibitory concentration, MIC
From the text: as §1

[21] = tested on: Staphylococcus aureus 0119; assay: as above; type: cell-based; conditions: read-out: minimum inhibitory concentration, MIC
From the text: as §1

[22] = tested on: Bacillus subtilis ATCC 6633; assay: as above; type: cell-based; conditions: ATCC6633, read-out: minimum inhibitory concentration, MIC
From the text: as §1

[23] = tested on: Pseudomonas aeruginosa ML4561; assay: as above; type: cell-based; conditions: read-out: minimum inhibitory concentration, MIC
From the text: as §1

[24] = tested on: Staphylococcus aureus MS 27; assay: as above; type: cell-based; conditions: MS27, read-out: minimum inhibitory concentration, MIC
From the text: as §1

[25] = tested on: Pseudomonas aeruginosa ML4561 Rms164-1; assay: as above; type: cell-based; conditions: ML4561RMS1641, read-out: minimum inhibitory concentration, MIC
From the text: as §1

[26] = tested on: Pseudomonas aeruginosa 1946; assay: as above; type: cell-based; conditions: read-out: minimum inhibitory concentration, MIC
From the text: as §1

[27] = tested on: Serratia marcescens; assay: as above; type: cell-based; conditions: read-out: minimum inhibitory concentration, MIC
From the text: as §1

[28] = tested on: Staphylococcus aureus ATCC 6538P; assay: as above; type: cell-based; conditions: ATCC6538P, read-out: minimum inhibitory concentration, MIC
From the text: as §1

CNC1C(O)C(OC2C(N)CC(N)C(OC3OC(CN)=CCC3NC=O)C2O)OCC1(C)O (stereo not drawn) [G-367-1]
0.8 µg/mL: MIC [22]
12.5 µg/mL: MIC [14] | MIC [21]
50 µg/mL: MIC [25]
soluble: Solubility ([2]; methanol) | Solubility ([2]; water)
1.6 µg/mL: MIC [4] | MIC [7] | MIC [9] | MIC [10] | MIC [15] | MIC [16] | MIC [17] | MIC [18] | MIC [19]
insoluble: Solubility ([2]; acetone) | Solubility ([2]; benzene) | Solubility ([2]; chloroform) | Solubility ([2]; ethyl acetate)
3.1 µg/mL: MIC [5] | MIC [8]
6.3 µg/mL: MIC [13] | MIC [24] | MIC [28]
25 µg/mL: MIC [20] | MIC [23] | MIC [27]
> 100 µg/mL: MIC [3] | MIC [6] | MIC [11] | MIC [12] | MIC [26]
strong antibacterial effect: antibacterial effect [1]
